Results published in patent US7718638B2, “(20R)-23,23-difluoro-2-methylene-19-nor-bishomopregnacalciferol-vitamin D analogs” (Wisconsin Alumni Research Foundation, priority 2007, dated 2010).
Entries after “also recorded” stand apart in the source; their conditions may differ.

Tests used:
HL-60 cells = experiment: HL-60 cell differentiation (nitro blue tetrazolium reduction); assay type: cell-based, human; conditions: FIG. 2; for EC50: HL-60 cells, 4 days
Description: The study drugs were dissolved in ethanol and the concentrations determined using UV spectrophotometry. Serial dilutions were prepared so that a range of drug concentrations could be tested without changing the final concentration of ethanol (≦0.2%) present in the cell cultures.
Human promyelocytic leukemia (HL60) cells were grown in RPMI-1640 medium containing 10% fetal bovine serum. The cells were incubated at 37° C. in the presence of 5% CO2.
HL60 cells were plated at 1.2×10^5 cells/ml. Eighteen hours after plating, cells in duplicate were treated with drug. Four days later, the cells were harvested and a nitro blue tetrazolium reduction assay was performed (Collins et al., 1979; J. Exp. Med. 149:969-974). The percentage of differentiated cells was determined by counting a total of 200 cells and recording the number that contained intracellular black-blue formazan deposits. Verification of differentiation to monocytic cells was determined by measuring phagocytic activity (data not shown).

Sprague-Dawley rats [1] = experiment: Intestinal calcium transport (everted gut sac) in vitamin D-deficient rats; assay type: in vivo, rat; conditions: FIG. 5; for intestinal calcium transport: everted gut sac
Description: (§1) Intestinal Calcium Transport and Bone Calcium Mobilization
(§2) Male, weanling Sprague-Dawley rats were placed on Diet 11 (0.47% Ca) diet+AEK oil for one week followed by Diet 11 (0.02% Ca)+AEK oil for 3 weeks. The rats were then switched to a diet containing 0.47% Ca for one week followed by two weeks on a diet containing 0.02% Ca. Dose administration began during the last week on 0.02% calcium diet. Four consecutive ip doses were given approximately 24 hours apart. Twenty-four hours after the last dose, blood was collected from the severed neck and the concentration of serum calcium determined as a measure of bone calcium mobilization. The first 10 cm of the intestine was also collected for intestinal calcium transport analysis using the everted gut sac method.

Sprague-Dawley rats [2] = experiment: Bone calcium mobilization (serum calcium) in vitamin D-deficient rats; assay type: in vivo, rat; conditions: FIG. 4; for bone calcium mobilization (serum calcium levels): dose not given, vitamin D-deficient rats on 0.02% Ca diet; for bone calcium mobilization: rats on 0.02% Ca diet
Description: as §1, §2

[3] = molecular target: T1, full-length recombinant rat vitamin D receptor (Rattus norvegicus, UniProt P13053); experiment: Vitamin D receptor competitive binding with [3H]-1,25(OH)2D3; conditions: FIG. 1
T1 construct: Full-length recombinant rat receptor was expressed in E. coli; histidine tag (C); made in house; host or cells: E. coli BL21 (DE3) Codon Plus RIL
T1 sequence (P13053 1-423): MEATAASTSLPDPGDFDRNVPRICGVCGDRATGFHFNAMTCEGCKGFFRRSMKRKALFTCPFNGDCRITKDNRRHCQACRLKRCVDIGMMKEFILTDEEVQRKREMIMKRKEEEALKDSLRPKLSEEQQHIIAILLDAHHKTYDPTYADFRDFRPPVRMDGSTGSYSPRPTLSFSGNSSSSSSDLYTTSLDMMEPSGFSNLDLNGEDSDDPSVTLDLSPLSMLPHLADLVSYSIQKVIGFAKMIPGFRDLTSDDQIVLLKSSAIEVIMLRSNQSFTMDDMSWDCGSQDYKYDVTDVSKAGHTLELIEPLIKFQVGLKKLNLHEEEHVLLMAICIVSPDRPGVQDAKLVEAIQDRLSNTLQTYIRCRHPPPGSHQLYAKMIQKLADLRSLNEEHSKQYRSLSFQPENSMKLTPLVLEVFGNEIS
Source text: Vitamin D Receptor Binding
Full-length recombinant rat receptor was expressed in E. coli BL21 (DE3) Codon Plus RIL cells and purified to homogeneity using two different column chromatography systems. The first system was a nickel affinity resin that utilizes the C-terminal histidine tag on this protein. The protein that was eluted from this resin was further purified using ion exchange chromatography (S-Sepharose Fast Flow). Aliquots of the purified protein were quick frozen in liquid nitrogen and stored at −80° C. until use. For use in binding assays, the protein was diluted in TEDK50 (50 mM Tris, 1.5 mM EDTA, pH 7.4, 5 mM DTT, 150 mM KCl) with 0.1% Chaps detergent. The receptor protein and ligand concentration were optimized such that no more than 20% of the added radiolabeled ligand was bound to the receptor.
Radiolabeled and unlabeled ligands were added to 100 mcl of the diluted protein at a final ethanol concentration of ≦10%, mixed and incubated overnight on ice to reach binding equilibrium. The following day, 100 mcl of hydroxylapatite slurry (50%) was added to each tube and mixed at 10-minute intervals for 30 minutes. […] After the final wash, the pellets were transferred to scintillation vials containing 4 ml of Biosafe II scintillation cocktail, mixed and placed in a scintillation counter. Total binding was determined from the tubes containing only radiolabeled ligand.

[4] = tested on: 24-hydroxylase (24Ohase) gene promoter in ROS 17/2.8 (bone) cells; experiment: In vitro transcription assay (24-hydroxylase promoter luciferase reporter); assay type: cell-based; conditions: FIG. 3
Description: In Vitro Transcription Assay
Transcription activity was measured in ROS 17/2.8 (bone) cells that were stably transfected with a 24-hydroxylase (24Ohase) gene promoter upstream of a luciferase reporter gene (Arbour et al., 1998). Cells were given a range of doses. Sixteen hours after dosing the cells were harvested and luciferase activities were measured using a luminometer.
RLU=relative luciferase units.

EC50 (HL-60 cells; Homo sapiens, 96 h) [nM]	Ki ([3]; full-length recombinant rat VDR, read-out: Ki, competition with [3H]-1,25(OH)2D3 for binding to the vitamin D receptor) [nM]	binding to the vitamin D receptor as compared to 1,25-(OH)2D3 ([3]; in words)	EC50 ([4]; ROS 17/2.8 cells, 24Ohase-luciferase, 16 h, read-out: EC50, transcriptional activity in bone cells) [nM]	SMILES	EC50 (HL-60 cells) [nM]	intestinal calcium transport (Sprague-Dawley rats [1]; 87 pmol/day)	bone calcium mobilization (serum calcium levels) (Sprague-Dawley rats [2])	potency on HL-60 cell differentiation as compared to 1,25(OH)2D3 (HL-60 cells; in words)	intestinal calcium transport (Sprague-Dawley rats [1]; 2340 pmol/day)	intestinal calcium transport (Sprague-Dawley rats [1]; 35100 pmol/day)	intestinal calcium transport activity as compared to 1,25(OH)2D3 (Sprague-Dawley rats [1]; in words, dose not stated)	bone calcium mobilization (Sprague-Dawley rats [2]; 2340 pmol/day ip for 4 consecutive days)	bone calcium mobilization (Sprague-Dawley rats [2]; 35100 pmol/day ip for 4 consecutive days)	transcriptional activity in bone cells as compared to 1α,25-dihydroxyvitamin D3 ([4]; in words)
				C=C1/C(=C\C=C2/CCC[C@]3(C)[C@@H]([C@H](C)CCCC(C)(C)O)CC[C@@H]23)C[C@@H](O)C[C@@H]1O [1,25(OH)2D3, 1α,25-dihydroxyvitamin D3, reference compound]	2	promotes a significant increase	increased serum calcium levels							
100	0.2	bound almost equally	10	C=C1[C@H](O)CC(=C/C=C2\CCC[C@]3(C)[C@@H]([C@@H](C)CC(F)F)CC[C@@H]23)C[C@H]1O [FF-44, (20R)-23,23-difluoro-1α-hydroxy-2-methylene-19-nor-bishomopregnacalciferol]			very little bone calcium mobilization activity; also recorded: little, if any, activity in mobilizing calcium from bone	almost as potent as 1,25(OH)2D3	does not promote intestinal calcium transport	no significant intestinal calcium transport activity	very little activity	did not result in mobilization of bone calcium	without any effect	about the same transcriptional activity
